According to publication PMC4226669, “Anti-cancer potency of tasquinimod is enhanced via albumin-binding facilitating increased uptake in the tumor microenvironment” (Oncotarget, 2014):

How the values were obtained:
[1] = Protein binding fraction (PBF) in human plasma; type: in vitro ADME; conditions: 1-50 μM radiolabeled tasquinimod
Method: An explanation for this highly restricted cellular uptake in the blood is provided by the fact that protein binding fraction (PBF) for tasquinimod in nude mouse plasma is 98 ± 1%. This is not a nude mouse specific effect since incubation of 1-50 μM radiolabeled tasquinimod with human plasma or bovine fetal serum (FBS) results in a PBF of ~ 98%.
Mice were orally gavaged with ^14C-labeled tasquinimod at a dose of 5mg/kg and 1 hour later blood collected and plasma isolated and the PBF determined as described previously using Centrifree® YM-30 centrifuge filter unit with a molecular weight cutoff of 30K (i.e., Millipore, Billerica,MO).

[2] = tested on: CWR-22Rv1, LAPC-4, LNCaP and HUVEC cells; test: Nuclear drug uptake in 3 prostate cancer lines and HUVEC; type: cell-based, human
Source text: To determine the total nuclear concentration of drug (Nt), a modified protocol was needed to allow the rapid lyses of cells and rapid isolation of cell nuclei by differential centrifugation. This could not be accomplished using the usual method of detergent lyses because detergents extract bound drug due to its lipophilicity. Therefore, a detergent free protocol using nitrogen cavitation was developed to rapidly lyse cells and allow the rapid isolation of nuclei via differential centrifugation. Using this cavitation protocol, it was documented that within 1 hour, total nuclear drug concentration (Nt) equals that of the protein-free drug concentration in the media (i.e., 0.2 μM), and that after 4 hours equals PMt (i.e., see Figure 3B, right panel for representative results for the CWR-22Rv1 cells). From 8 hours onward, Nt is more than 10 fold higher than the free and 2 fold higher than the total drug concentration in the media, Figure 3B, right panel. For example at 24 hours post exposure to 1 μM tasquinimod in 10% FBS containing media, the Nt is 2.4 ± 0.3 μM, Figure 3B, right panel. At this 24 hours period, total radioactive drug in isolated nuclei from all 3 prostate cancer lines, as well as HUVEC cells (i.e., nuclear concentration in these 4 lines ranged from 2.2-3.1 μM) was extracted with acetonitrile and the extracts analyzed by HPLC. […] To resolve this, nuclear uptake was determined 24 hours post exposure to 1 μM tasquinimod in serum free media. These studies again documented that nuclear tasquinimod concentration in these 4 cell lines ranged from 2.5-3.5 μM documenting that binding to albumin is not required for cell uptake.
To specifically determine the concentration of tasquinimod within the cell nucleus, 10^7 cells were incubated in 1ml of tissue culture media containing 10% fetal bovine serum (FBS) plus 1μM ^14C-labeled tasquinimod for varying times before the cells were centrifuged rapidly (i.e., 1000xG for 2 min) to remove the drug containing media. The cells were rapidly resuspended in phosphate buffered saline and exposed to pressurized (i.e., 500lbs/sq in) N2 in a nitrogen cavitation devise (i.e., Parr bomb, Parr Instrument Company, Moline, Il) for 5 min before the plasma membranes were lysed by the rapid release of the pressure. This detergent free procedure lyses >98% of the cells without disrupting either mitochondria or lysosomes. […] The radioactivity of this pellet was counted and used to calculate the total amount of tasquinimod associated with 10^7 cell nuclei. To determine the nuclear drug concentration, this total nuclear drug amount was […] the total volume of 10^7 cell nuclei determined from the average diameter of the nuclei determined electronically using Cellometer AutoT4.

[3] = cited from earlier work
[4] = tested on: TRAMP-C2 mouse prostate cancer; test: TRAMP-C2 cancer growth and blood vessel density in syngeneic mice; type: in vivo; conditions: 5 mg/kg/day via the drinking water
Source text: Tasquinimod's oral potency is not restricted to human prostate cancer xenografts growing in immune-suppressed mice.
The source, history, and characteristics of the human prostate cancer cell lines (i.e., LNCaP, LAPC4, and CWR-22Rv1 and the human umbilical vascular endothelial cells (HUVEC) used, as well as cell culture conditions for their in vitro maintenance and the in vivo protocol for their xenografting into immune-deficient nude male mice are as described previously. The source, history, and characteristics of the TRAMP-C2 mouse prostate cancer line, as well as cell culture conditions for their in vitro maintenance and the in vivo protocol for their growth in intact adult male syngeneic C57Bl/6J are as described previously. All lines were mycoplasma negative using the MycoSensor PCR Assay kit (Agilent Technologies) and genetically authenticated within the last 6 months using short tandem repeat profiling conducted by the Johns Hopkins Genetic Resource Core Facility. The source, history, and characteristics of the CWR-RH human prostate cancer xenograft are as described previously. In vitro growth curves were determined as described. Animal studies were conducted according to animal protocol MO09M434 approved by Johns Hopkins Animal Care and Use Committee. […]

[5] = tested on: CWR-22Rv1 human prostate cancer xenografts; test: Dose-response growth inhibition of established CWR-22Rv1 xenografts (subcutaneous daily injection); type: in vivo, mouse; conditions: 20 days
Method: To confirm these in vitro results, mice were inoculated subcutaneously (SQ) with CWR-22Rv1 cells and remained untreated until the tumors grew to ~ 200 mm3 (i.e., ~ 200 mgs) and then they were randomly assigned to groups (n=10) which were injected SQ daily with 100 μl of propylene glycol vehicle only vs. vehicle delivering 0.1 or 1 mg/kg/day of either tasquinimod or its carboxamide-N-demethylated metabolite. Propylene glycol was used as vehicle due to the low water solubility of the carboxamide-N-demethylated metabolite. After 20 days of continuous treatment, the experiment was terminated and the total weight of each cancer determined and the results expressed both as average tumor weight in grams and as the ratio of the weight of the cancers in the treated vs. vehicle control animals (i.e., T/C ratio), Figure 5A.
The source, history, and characteristics of the human prostate cancer cell lines (i.e., LNCaP, LAPC4, and CWR-22Rv1 and the human umbilical vascular endothelial cells (HUVEC) used, as well as cell culture conditions for their in vitro maintenance and the in vivo protocol for their xenografting into immune-deficient nude male mice are as described previously. The source, history, and characteristics of the TRAMP-C2 mouse prostate cancer line, as well as cell culture conditions for their in vitro maintenance and the in vivo protocol for their growth in intact adult male syngeneic C57Bl/6J are as described previously. All lines were mycoplasma negative using the MycoSensor PCR Assay kit (Agilent Technologies) and genetically authenticated within the last 6 months using short tandem repeat profiling conducted by the Johns Hopkins Genetic Resource Core Facility. The source, history, and characteristics of the CWR-RH human prostate cancer xenograft are as described previously. In vitro growth curves were determined as described. Animal studies were conducted according to animal protocol MO09M434 approved by Johns Hopkins Animal Care and Use Committee. Daily drug dosing via oral gavage, the drinking water, or subcutaneous injection, as well as tumor volume measurements and determination of the blood vessel density within cancers, were as described previously. These experiments were repeated at 3 independent times for each xenograft.

bovine albumin = molecular target: T1, bovine albumin (Bos taurus, UniProt P02769); test: Equilibrium dialysis binding to bovine albumin; conditions: pH 7.4, equilibrium dialysis, read-out: equilibrium dissociation constant (Kd)
T1 construct: purchased Sigma
T1 sequence (P02769 25-607): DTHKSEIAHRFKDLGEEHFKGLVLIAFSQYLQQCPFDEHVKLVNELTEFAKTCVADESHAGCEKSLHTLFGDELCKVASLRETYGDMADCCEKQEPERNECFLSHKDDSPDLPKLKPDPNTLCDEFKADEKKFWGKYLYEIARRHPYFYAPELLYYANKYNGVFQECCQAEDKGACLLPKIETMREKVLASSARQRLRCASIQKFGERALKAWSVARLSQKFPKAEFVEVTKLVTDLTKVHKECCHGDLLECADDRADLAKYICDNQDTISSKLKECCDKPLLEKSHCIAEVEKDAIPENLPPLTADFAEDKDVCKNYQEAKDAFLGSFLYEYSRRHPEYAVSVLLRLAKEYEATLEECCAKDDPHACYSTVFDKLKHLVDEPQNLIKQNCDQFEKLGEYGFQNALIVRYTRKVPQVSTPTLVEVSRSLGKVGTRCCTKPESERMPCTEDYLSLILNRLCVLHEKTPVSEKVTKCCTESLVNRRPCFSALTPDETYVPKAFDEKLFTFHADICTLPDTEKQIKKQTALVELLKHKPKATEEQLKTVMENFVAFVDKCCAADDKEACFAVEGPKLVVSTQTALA
Method: To determine whether albumin is the tasquinimod binding protein in plasma, albumin was removed from human plasma using an albumin depletion kit (Thermo Scientific cat # 85160). The albumin depleted plasma was then tested for its protein binding as described above. The dissociation constant (kd) for tasquinimod binding was determined based upon equilibrium dialysis of a mixture of 4mg/ml of the species (i.e., human, bovine, and mouse) specific albumin obtained from Sigma with 2μM of ^14C-labeled tasquinimod in PBS pH 7.4 buffer using a 96-well equilibrium dialyzer™ (Harvard Apparatus, Holliston,MA).

- fraction unbound [1]: ~0.02
- nuclear concentration, range over 4 lines ([2]; 24 hours, 1 μM in 10% FBS media): 2.2 to 3.1 µM
- nuclear tasquinimod concentration, range over 4 cell lines ([2]; 24 hours, 1 μM in serum free media): 2.5 to 3.5 µM
- drug present within nuclei that is non-metabolized tasquinimod ([2]; 24 hours, each of 4 cell lines, HPLC): > 95%
- intracellular drug concentration ([2]; exposure of cancer and endothelial cells to 0.5-1μM): 2 to 3 µM
- Kd (bovine albumin): 31 ± 6 µM
SMILES: COc1cccc2c1c(O)c(C(=O)N(C)c1ccc(C(F)(F)F)cc1)c(=O)n2C [Tasquinimod]
- blood (plasma) level maintained ([3]; chronic daily oral dosing, 1 mg (0.5-1 mg/day), clinical trials): ~ 0.5 μM
- plasma half-life ([3]; clinical trials): 40 ± 16 h
- plasma levels at which systemic anti-cancer potency occurs ([3]; clinical trials): 0.5 to 1 µM
- bioavailability and oral absorption ([3]; daily dose as liquid or gelatin capsule): excellent
- inhibition of TRAMP-C2 mouse prostate cancer growth ([4]; immune-competent syngeneic mice): > 80%
- inhibition of blood vessel density within the TRAMP-C2 cancers ([4]; treated vs. control): 75 ± 9%
- Avg Tumor Weight ([5]; 0.1 mg/kg/day SQ): 0.855 ± 0.203 g
- T/C Ratio ([5]; 0.1 mg/kg/day SQ): 0.491
- Avg Tumor Weight ([5]; 1 mg/kg/day SQ): 0.668 ± 0.166 g
- T/C Ratio ([5]; 1 mg/kg/day SQ): 0.383
- potency on an equal dose basis vs carboxamide-N-demethylated metabolite ([5]; 0.1 or 1 mg/kg/day SQ): equipotent
